What was measured:
[1] = Multiple-dose escalation pharmacokinetics in healthy subjects (Study 2-Part 1); settings: 24 mg BID IR, Day 14, from Cmax to Ctrough ratio, harmonic mean ± pseudo-SD, 20160 min
[2] = Solubility of upadacitinib in different aqueous media at 37 °C; settings: low pH
[3] = QD ER tablet
[4] = clinical; settings: human, in vivo, po, functional half-life (t1/2), BID IR oral solution

t1/2F (functional half-life) [1] | solubility [2] | time to maximum upadacitinib concentration (Tmax) [3] | half-life [4] | SMILES
3.3 ± 0.4 h |  |  |  | CC[C@@H]1CN(C(=O)NCC(F)(F)F)C[C@@H]1c1cnc2cnc3[nH]ccc3n12 [Compound 1, (3S,4R)-3-ethyl-4-(3H-imidazo[1,2-a]pyrrolo[2,3-e]pyrazin-8-yl)-N-(2,2,2-trifluoroethyl) pyrrolidine-1-carboxamide]
 | good solubility at low pH | approximately 3 hours | ~120 min | CC[C@@H]1CN(C(=O)NCC(F)(F)F)C[C@@H]1c1cnc2cnc3[nH]ccc3n12 [upadacitinib, (3S,4R)-3-ETHYL-4-(3H-IMIDAZO[1,2-a]PYRROLO[2,3-e]-PYRAZIN-8-YL)-N-(2,2,2-TRIFLUOROETHYL)PYRROLIDINE-1-CARBOXAMIDE]

Reference: patent US20260297101A1 (AbbVie Inc., priority 2015, published 2026)
